Here are results for one substance from paper PMC9177545, “3-oxo-C12:2-HSL, quorum sensing molecule from human intestinal microbiota, inhibits pro-inflammatory pathways in immune cells via bitter taste receptors” (Scientific Reports, 2022).

One assay relates to Caco-2/TC7. Set-up: method as in PMID 30157234. Conditions: Caco-2/TC7 stimulated by IL-1β ref 17; cited from earlier work.
The next assay has as its target T1, TAS2R138 (Mus musculus, UniProt Q7TQA6).
T1 construct: endogenous in cells; host or cells: RAW264.7 murine macrophages (ATCC)
T1 sequence (Q7TQA6 1-331): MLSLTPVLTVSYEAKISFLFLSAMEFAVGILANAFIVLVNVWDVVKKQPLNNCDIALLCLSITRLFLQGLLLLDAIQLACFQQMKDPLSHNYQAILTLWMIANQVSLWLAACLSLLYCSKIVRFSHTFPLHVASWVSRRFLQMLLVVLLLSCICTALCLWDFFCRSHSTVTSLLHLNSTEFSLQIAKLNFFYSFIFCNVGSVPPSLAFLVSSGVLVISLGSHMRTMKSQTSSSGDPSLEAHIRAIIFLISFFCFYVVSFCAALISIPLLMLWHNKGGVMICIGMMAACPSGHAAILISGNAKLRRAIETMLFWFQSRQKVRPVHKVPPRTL
As to the kind of experiment: TAS2R38/TAS2R138 inhibition experiment: TNFα secretion of RAW264.7 cells pre-treated with probenecid. The class given is cell-based. Conditions: pre-treated with 1 mM probenecid one hour, then LPS, IFNγ and AHL six hours. The procedure: In RAW264.7 cells, inflammation was triggered with LPS (10 ng/mL, Sigma) and IFNγ (10 U/mL, R&Dsystems) for 2 h or 6 h, depending on the experiments. PBMC were exposed to LPS (10 ng/mL) and AHL for 24 h. For TAS2R38 inhibition experiments, cells were exposed to TAS2R38 allosteric inhibitor probenecid (1 mM, Sigma) for one hour before adding AHLs and the inflammatory cocktail, without changing the media.
At the end of cell treatment, the medium was centrifuged at 300g for 5 min at 4 °C. Supernatant was frozen at − 80 °C until ELISA assays. TNFα and IL-1β ELISA kits were purchased from R&D systems and performed according to the manufacturer’s instructions. Briefly, plates were coated with a capture antibody and incubated overnight. Wells were blocked using 1% bovine serum albumin-PBS solution (Sigma), then exposed to cell supernatants at room temperature for two hours. Wells were washed and incubated with the detection antibody for an additional two hours. After thorough washing, Streptavidin-HRP solution was added for 20 min. Wells were washed, then incubated with TMB (Biolegend) solution for 20 min and the reaction was stopped using 1 M H2SO4. Absorbance was measured by a spectrometer (FLUOstar Omega; BMG Labtech) at 450 nm and the absorbance at 540 nm was subtracted.

The next assay concerns PBMC. As to the kind of experiment: TNFα secretion by ELISA in PBMC stimulated with LPS. The class given is cell-based, human. The following applies: LPS 10 ng/mL, 24 h, dose-dependent between 25 to 100 µM. The procedure: Peripheral Blood Mononuclear Cells (PBMC) were extracted from whole blood of anonymous donors and collected by Etablissement Français du Sang of Paris, France.
PBMC were cultured in Roswell Park Memorial Institute medium (ThermoFisher Scientific) with 10% heat-inactivated fetal calf serum, 1% L-glutamine, 1% non-essential amino acids, 1% sodium pyruvate, penicillin (100 IU/mL), and streptomycin (100 µg/mL). Peripheral blood was harvested in EDTA tubes, blood was diluted with PBS 1:1, layered over Histopaque-1077® (Sigma) and centrifuged for 20 min at 400g at room temperature. Extracted PBMC were washed twice with sterile PBS then centrifuged at 300g for 5 min and resuspended in complete medium. For experiments, cells were seeded at 300,000 cells per well in 200 µL of medium in 96-well plates (ThermoFisher Scientific).
Cells were exposed to 3-oxo-C12:2-HSL (synthesized as previously described[17]) or DMSO 0.1% as a control for different durations depending on the experiment, in the presence of the lactonase inhibitor 2-hydroxyquinoline (100 µM, Sigma-Aldrich), in order to limit the hydrolysis of the AHL lactone ring, as described previously[17],[18]. […]
At the end of cell treatment, the medium was centrifuged at 300g for 5 min at 4 °C. […] Absorbance was measured by a spectrometer (FLUOstar Omega; BMG Labtech) at 450 nm and the absorbance at 540 nm was subtracted.
Background: An ELISA detects its analyte on a solid surface through an enzyme-linked reagent.

A further assay has as its system RAW264.7 cells. Put plainly: Intracellular calcium assay (Fluo-4) in RAW264.7 cells. The class given is cell-based, murine. Conditions: 1000 µM. As to the method:
RAW264.7 cells were seeded in black, clear-bottom 96-well plates (Costar) at 20,000 cells per well. The next day, release of intracellular Ca^2+ was measured using Fluo-4 (Fluo-4 Direct Calcium Assay; Life Technologies) according to the manufacturer’s instructions. Medium was discarded and 100 µL of 1 X Fluo-4 dye was incubated at 37 °C for 1 h in 5% CO2, protected from light. Then, basal fluorescence was measured using a fluorospectrometer (FLUOstar Omega; BMG Labtech), excitation at 485 nm and emission at 520 nm. Molecules of interest were then added with an electronic pipette; thapsigargin (10 µM, Sigma) as a positive control, 3-oxo-C12:2-HSL (1000 µM) or DMSO 0.5%; with 8 replicates per conditions for every experiment. The fluorescence signal was immediately measured every 80 s for 2 h. Results are expressed as a ratio of the fluorescence x times over the basal fluorescence (F/F0).
Background: Calcium assays in cells follow changes in intracellular calcium, usually with a dye or a luminescent sensor.

Turning to 3-oxo-C12:2-HSL, the IL-8 production entry in the assay on Caco-2/TC7 is given as “decreased”. Further, the “anti-inflammatory effect (TNFα secretion) when TAS2R138 is inhibited” value at TAS2R138 is “abolished”. The TNFα secretion result with PBMC was “strongly decreased”. For the same substance, in the assay with RAW264.7 cells (Fluo-4 F/F0, two hours), the “slope of the calcium response curve vs control condition” value is “significantly higher”. In addition, the “intracellular calcium level compared with the control” value in the assay with RAW264.7 cells (basal state, Fluo-4, two hours, control DMSO 0.5%) was “increase”.
